Reference: publication PMC5442318, “Hundreds of dual-stage antimalarial molecules discovered by a functional gametocyte screen” (Nature Communications, 2017)

Tests used:
[1] = test system: P. falciparum asexual blood stages; conditions: TCAMS data; ref 1 (Gamo et al., 2010); read-out: Pf Asexual blood stages XC50; cited from earlier work
[2] = test system: P. falciparum stage V female gametocytes; experiment: P. falciparum female gametocyte activation assay (Pf FGAA), 24 h or 48 h preincubation, Pfs25 expression readout; type: cell-based, Plasmodium falciparum NF54; conditions: mean; read-out: Gametocytes mean Pf FGAA IC50
How it was run: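 Purified stage V gametocytes from P. falciparum NF54 gametocyte cultures were exposed to compounds for 24 h or 48 h at 37 °C under 3% O2/5% CO2, then activated by temperature drop plus xanthurenic acid. Activated females were stained with Cy3-anti-Pfs25 (0.5 μg ml^−1) for 24 h at 26 °C and counted by high-content imaging; pIC50 by nonlinear regression.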

HepG2 cells = experiment: HepG2 cytotoxicity assay; type: cell-based; conditions: mean
How it was run: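 Post-incubation CellTiter-Glo luminescence; 30 min RT equilibration, 10 min RT stabilization before reading.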

[3] = test system: P. falciparum stages IV–V gametocytes; experiment: Gametocytocidal ATP-depletion assay (gametocyte ATP bioluminescence); type: cell-based, Plasmodium falciparum
How it was run: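 Purified stage IV–V gametocytes (12,500/well) incubated with compound for 48 h at 37 °C under 3% O2/5% CO2. ATP measured by BacTiter-Glo luminescence as a viability surrogate; hits tested at 2 μM single concentration.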

In the case of CN1CCN(CCNc2c3ccccc3nc3c2ccc2ccccc23)CC1.Cl [TCMDC-137723], the IC50 [1] is given as 610 nM, the IC50 [2] is given as 3490 nM and the “HepG2 cells mean TOX50” value (HepG2 cells) is given as 5.07 µM. The “Gametocytes mean ATP inhibition at 2µM (%)” value [3] was 67.71%.

In the case of COc1ccc2nc(-c3ccccc3)cc(NCCCNc3cc(-c4ccccc4)nc4ccc(OC)cc34)c2c1.Cl [TCMDC-137734], the IC50 [1] is listed as 120 nM, the IC50 [2] is listed as 5600 nM and the “HepG2 cells mean TOX50” value (HepG2 cells) is listed as 70.79 µM. For the same compound, the “Gametocytes mean ATP inhibition at 2µM (%)” value [3] was 2.17%.

In the case of Cl.c1ccc2c(NCCCCCCCCCNc3ccnc4ccccc34)ccnc2c1 [TCMDC-137750], the IC50 [1] is given as 120 nM, the IC50 [2] is given as 850 nM and the “HepG2 cells mean TOX50” value (HepG2 cells) is given as 1.50 µM. For the same compound, the “Gametocytes mean ATP inhibition at 2µM (%)” value [3] was 35.04%.

For Cl.c1ccc2c(NCCCCCCCCNc3ccnc4ccccc34)ccnc2c1 [TCMDC-137751], the IC50 [1] is listed as 160 nM, the IC50 [2] is listed as 1020 nM and the “HepG2 cells mean TOX50” value (HepG2 cells) is listed as 1.15 µM. For the same compound, the “Gametocytes mean ATP inhibition at 2µM (%)” value [3] was 39.31%.

For CC(CO)(CO)NCc1cc2c3ccccc3c(CNC(C)(CO)CO)cc2c2ccccc12.CS(=O)(=O)O [TCMDC-137752], the IC50 [1] is listed as 720 nM, the IC50 [2] is listed as 4420 nM and the “HepG2 cells mean TOX50” value (HepG2 cells) is listed as 7.33 µM. The “Gametocytes mean ATP inhibition at 2µM (%)” value [3] was 71.86%.

For CS(=O)(=O)O.CSc1ccc2ccccc2c1CCNCCCCNCCc1c(SC)ccc2ccccc12 [TCMDC-137763], the IC50 [1] is given as 410 nM, the IC50 [2] is given as 1010 nM and the “HepG2 cells mean TOX50” value (HepG2 cells) is given as 1.82 µM. The “Gametocytes mean ATP inhibition at 2µM (%)” value [3] was 93.38%.

In the case of CC1CCCCN1CCCNc1nc(NCc2ccccc2)c2ccccc2n1 (stereo not shown) [TCMDC-137771], the IC50 [1] is given as 950 nM, the IC50 [2] is given as 7250 nM and the “HepG2 cells mean TOX50” value (HepG2 cells) is given as 14.62 µM. For the same compound, the “Gametocytes mean ATP inhibition at 2µM (%)” value [3] was 38.73%.

In the case of Clc1ccc(Nc2nc3ccc(Cl)cc3nc2Nc2ccc(Cl)cc2)cc1 [TCMDC-137772], the IC50 [1] is listed as 130 nM, the IC50 [2] is listed as 1910 nM and the “HepG2 cells mean TOX50” value (HepG2 cells) is listed as 7.86 µM. The “Gametocytes mean ATP inhibition at 2µM (%)” value [3] was 27.62%.

In the case of COc1cc2ccccc2c(CNCCCCCCNCc2c(OC)c(OC)cc3ccccc23)c1OC.CS(=O)(=O)O [TCMDC-137795], the IC50 [1] is listed as 1110 nM, the IC50 [2] is listed as 670 nM and the “HepG2 cells mean TOX50” value (HepG2 cells) is listed as 4.62 µM. The “Gametocytes mean ATP inhibition at 2µM (%)” value [3] was 13.93%.

For COc1ccc2ccc(OC)c(CNCCCCCCNCc3c(OC)ccc4ccc(OC)cc34)c2c1.CS(=O)(=O)O [TCMDC-137796], the IC50 [1] is given as 700 nM, the IC50 [2] is given as 1210 nM and the “HepG2 cells mean TOX50” value (HepG2 cells) is given as 3.31 µM. For the same compound, the “Gametocytes mean ATP inhibition at 2µM (%)” value [3] was 68.84%.

In the case of COc1ccc2cc(CNCCCCCCNCc3ccc4cc(OC)ccc4c3)ccc2c1.CS(=O)(=O)O [TCMDC-137797], the IC50 [1] is listed as 620 nM, the IC50 [2] is listed as 590 nM and the “HepG2 cells mean TOX50” value (HepG2 cells) is listed as 1.55 µM. For the same compound, the “Gametocytes mean ATP inhibition at 2µM (%)” value [3] was 35.46%.

In the case of c1cc(C2=N[C@H]3CCCC[C@@H]3N2)ccc1OCCCOc1ccc(C2=N[C@@H]3CCCC[C@H]3N2)cc1 [TCMDC-137803], the IC50 [1] is given as 730 nM, the IC50 [2] is given as 11500 nM and the “HepG2 cells mean TOX50” value (HepG2 cells) is given as 38.02 µM. The “Gametocytes mean ATP inhibition at 2µM (%)” value [3] was 57.55%.

For Nc1nc(N)c2c(ccc3c2ccn3Cc2cccc(F)c2)n1 [TCMDC-137810], the IC50 [1] is given as 3 nM, the IC50 [2] is given as 1420 nM and the “HepG2 cells mean TOX50” value (HepG2 cells) is given as 0.06 µM. For the same compound, the “Gametocytes mean ATP inhibition at 2µM (%)” value [3] was 0.71%.

In the case of Nc1nc(N)c2c(ccc3c2ccn3Cc2ccc(-c3ccccc3)cc2)n1 [TCMDC-137813], the IC50 [1] is listed as 50 nM, the IC50 [2] is listed as 2010 nM and the “HepG2 cells mean TOX50” value (HepG2 cells) is listed as 1.16 µM. The “Gametocytes mean ATP inhibition at 2µM (%)” value [3] was 26.93%.

In the case of CS(=O)(=O)O.FC(F)(F)COc1ccc2ccccc2c1CNCCCCCCNCc1c(OCC(F)(F)F)ccc2ccccc12 [TCMDC-137816], the IC50 [1] is listed as 350 nM, the IC50 [2] is listed as 1090 nM and the “HepG2 cells mean TOX50” value (HepG2 cells) is listed as 1.84 µM. For the same compound, the “Gametocytes mean ATP inhibition at 2µM (%)” value [3] was 27.96%.

In the case of CCCCSc1c(CNCCCCCCNCc2ccc3ccccc3c2SCCCC)ccc2ccccc12.CS(=O)(=O)O [TCMDC-137825], the IC50 [1] is given as 1000 nM, the IC50 [2] is given as 970 nM and the “HepG2 cells mean TOX50” value (HepG2 cells) is given as 2.76 µM. For the same compound, the “Gametocytes mean ATP inhibition at 2µM (%)” value [3] was 10.43%.

In the case of COc1c(OC)c(OC)c2ccccc2c1CNCCCCCCNCc1c(OC)c(OC)c(OC)c2ccccc12.Cl [TCMDC-137827], the IC50 [1] is given as 760 nM, the IC50 [2] is given as 1670 nM and the “HepG2 cells mean TOX50” value (HepG2 cells) is given as 2.95 µM. For the same compound, the “Gametocytes mean ATP inhibition at 2µM (%)” value [3] was -6.56%.

In the case of C#CCCOc1ccc2ccccc2c1CNCCCCCCNCc1c(OCCC#C)ccc2ccccc12 [TCMDC-137832], the IC50 [1] is given as 810 nM, the IC50 [2] is given as 920 nM and the “HepG2 cells mean TOX50” value (HepG2 cells) is given as 4.79 µM. The “Gametocytes mean ATP inhibition at 2µM (%)” value [3] was 12.79%.

For COc1c(CNCCCCCCNCc2c(OC)c(OC)c3ccccc3c2OC)c(OC)c2ccccc2c1OC.CS(=O)(=O)O [TCMDC-137837], the IC50 [1] is given as 960 nM, the IC50 [2] is given as 3690 nM and the “HepG2 cells mean TOX50” value (HepG2 cells) is given as 4.42 µM. The “Gametocytes mean ATP inhibition at 2µM (%)” value [3] was 18.67%.
